# Columns and labels:
# LNCaP cells = assay: Growth in steroid-reduced medium with DHT and/or bicalutamide; type: cell-based, human; conditions: 10^−9 M DHT
# Experimental: Cell Growth Assays: To measure growth in complete media, cells (2×10^4) were seeded in triplicate in individual wells of 12-well tissue culture plates in RPMI-1640 with 10% FBS and cultured for the indicated number of days. Cells were trypsinized, stained with Trypan Blue (0.4%), and counted in a hemacytometer. […] Colonies were counted after 10 days of incubation. For studies assessing the effect of dihydrotestosterone (DHT) on cell growth, cells (2×10^4) were plated in 12-well plates in complete media. After a 24-hour attachment period, the medium was replaced with steroid-free medium [phenol red-free RPMI 1640 and 5% charcoal-stripped FBS (Sigma)] for 48 hours. The final concentration of testosterone in the steroid-reduced media was less than 5 pM. After 48 hours of steroid depletion, cells were re-fed with fresh steroid-reduced medium with or without the indicated concentrations of DHT and/or bicalutamide (10 μM), and total cell numbers were assessed 7 days later.
# Androgen Receptor (AR) = Androgen Receptor (AR) (Homo sapiens, UniProt P10275, T878A)
# Chain of Androgen Receptor (AR) (P10275 whole entry T878A): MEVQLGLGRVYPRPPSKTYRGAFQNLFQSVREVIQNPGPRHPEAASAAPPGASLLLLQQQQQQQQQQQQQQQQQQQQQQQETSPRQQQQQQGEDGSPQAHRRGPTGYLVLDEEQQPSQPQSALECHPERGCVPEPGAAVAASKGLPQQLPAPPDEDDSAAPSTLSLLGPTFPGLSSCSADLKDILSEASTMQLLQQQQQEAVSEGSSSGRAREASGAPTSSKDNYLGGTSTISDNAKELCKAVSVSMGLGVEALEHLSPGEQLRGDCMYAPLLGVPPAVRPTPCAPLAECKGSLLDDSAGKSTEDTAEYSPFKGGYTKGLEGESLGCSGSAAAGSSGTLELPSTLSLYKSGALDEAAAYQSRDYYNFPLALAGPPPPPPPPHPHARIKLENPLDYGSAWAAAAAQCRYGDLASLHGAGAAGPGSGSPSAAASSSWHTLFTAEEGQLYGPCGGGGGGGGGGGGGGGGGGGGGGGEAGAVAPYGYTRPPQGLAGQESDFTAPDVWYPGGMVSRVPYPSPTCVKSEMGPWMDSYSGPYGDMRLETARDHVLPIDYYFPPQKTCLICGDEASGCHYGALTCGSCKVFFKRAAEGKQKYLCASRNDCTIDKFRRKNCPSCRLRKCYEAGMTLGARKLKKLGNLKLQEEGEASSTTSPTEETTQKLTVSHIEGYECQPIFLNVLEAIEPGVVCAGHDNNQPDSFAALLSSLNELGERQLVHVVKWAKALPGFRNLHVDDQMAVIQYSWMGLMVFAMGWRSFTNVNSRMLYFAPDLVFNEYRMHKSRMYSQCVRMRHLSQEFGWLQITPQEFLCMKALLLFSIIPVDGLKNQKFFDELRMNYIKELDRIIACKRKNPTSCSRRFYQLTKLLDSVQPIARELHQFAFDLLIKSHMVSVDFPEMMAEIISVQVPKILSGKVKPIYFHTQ
# Experimental: Luciferase Reporter Assays: Vector control or ebp1-transfected LNCaP (5×10^4) cells were plated in twelve-well plates in complete media. When cells reached 50-60% confluence, they were transfected with 0.5 μg of MMTV-luc using the Fugene-6 reagent (Roche). Cells were also transfected with the RL-TK vector as an internal control. […] Luciferase activity was determined as previously described using a Dual-Luciferase kit (Promega, Madison, Wis.). The activities of renilla luciferase were used to normalize any variations in transfection efficiency. The promoter activities of each plasmid construct were calculated as the firefly-renilla luciferase activity ratios. All transfection experiments were carried out in triplicate wells and repeated three times.
Structure (SMILES),stimulation of growth as compared to no DHT (LNCaP cells; Ebp1 transfectants) [%],"stimulation of growth as compared to no DHT (LNCaP cells; LNCaP vector controls, maximal) [%]","activation of luciferase activity (MMTV-luc) (Androgen Receptor (AR); LNCaP vector controls, R1881 10^−8 M) [fold]",AR activation (MMTV-luc) (Androgen Receptor (AR); ebp1 transfectants)
"C[C@]12CCC(=O)C[C@@H]1CC[C@@H]1[C@@H]2CC[C@]2(C)[C@@H](O)CC[C@@H]12 [DHT, dihydrotestosterone]",35,250,,
C[C@]1(O)CC[C@H]2[C@@H]3CCC4=CC(=O)CCC4=C3C=C[C@@]21C [R1881],,,20,neither R1881 nor cyproterone acetate nor the combination thereof stimulated AR activation
